This note sets out measurements from patent publication US12428415B2, “Matriptase 2 inhibitors and uses thereof” (Disc Medicine, Inc., priority 2018, dated 2025).

Each structure is given as a SMILES string. Where two headings read alike, the source gives them in different places.

For orientation: inhibition means the change of the read-out against control, counted positive when it falls.

The target in this experiment is T1, Human Recombinant Matriptase 2 (Homo sapiens, UniProt Q8IU80).
T1 construct: purchased Enzo Life Sciences (an in-house preparation was also used) ALX-201-752-1
T1 sequence (Q8IU80 1-811): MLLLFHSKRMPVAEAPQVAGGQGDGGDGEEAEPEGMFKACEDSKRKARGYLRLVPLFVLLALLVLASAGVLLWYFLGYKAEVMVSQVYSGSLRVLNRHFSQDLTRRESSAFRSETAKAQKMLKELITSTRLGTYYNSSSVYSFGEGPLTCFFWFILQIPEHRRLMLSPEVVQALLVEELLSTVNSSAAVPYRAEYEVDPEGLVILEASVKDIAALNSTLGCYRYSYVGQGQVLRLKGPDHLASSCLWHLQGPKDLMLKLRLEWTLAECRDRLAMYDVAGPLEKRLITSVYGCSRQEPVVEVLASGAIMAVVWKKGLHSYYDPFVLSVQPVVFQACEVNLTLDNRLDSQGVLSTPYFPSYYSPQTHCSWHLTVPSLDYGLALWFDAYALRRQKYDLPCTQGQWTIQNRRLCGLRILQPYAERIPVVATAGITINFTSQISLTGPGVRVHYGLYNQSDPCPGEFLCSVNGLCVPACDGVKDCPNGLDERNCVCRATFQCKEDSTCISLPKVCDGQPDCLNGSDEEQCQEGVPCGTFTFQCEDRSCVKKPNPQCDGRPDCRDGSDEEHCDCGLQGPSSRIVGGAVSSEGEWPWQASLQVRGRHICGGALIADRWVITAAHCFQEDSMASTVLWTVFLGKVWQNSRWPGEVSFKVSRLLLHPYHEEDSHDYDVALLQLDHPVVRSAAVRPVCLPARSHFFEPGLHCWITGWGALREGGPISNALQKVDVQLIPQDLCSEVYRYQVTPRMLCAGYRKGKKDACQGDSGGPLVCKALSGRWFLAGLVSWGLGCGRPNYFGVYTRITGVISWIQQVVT
The experiment can be described thus: Matriptase 2 fluorescence based inhibition assay, Method B (50 mM TRIS pH 7.5, 150 mM NaCl, 0.01% gelatin). Particulars: for inhibition at 1 µM: read-out: Mar-2 % inhibition at 1 uM. The class given is biochemical. The procedure: Test compounds were evaluated for their potential to inhibit Human Recombinant Matriptase 2 (in-house and commercial protein from Enzo Life Sciences—cat log -ALX-201-752-1) using fluorescence based assay. The concentration of Recombinant Matriptase 2 and the substrate used in the assay was: 7 nM (commercial) and 15 nM (Inhouse Matriptase 2) and 100 μM (Boc-Gln-Ala-Arg-7-amido-4-methyl coumarin hydrobromide—Cat log: B4153-Sigma and I-1550 from Bachem) respectively. The assay buffer used was 50 mM TRIS pH 7.5, 150 mM NaCl, 0.01% gelatin (G1393 Sigma). The assay was performed using 384 well black flat bottom plate from grenier (Cat log: 781076) at 25° C. The enzyme and compound preincubated for 30 mins, plate was read 60 mins after substrate addition at wavelength Ex: 360/Em:480 nm. The final assay volume of was 20 μl. Stock solution of compounds were initially prepared in DMSO and appropriate dilutions were made for screening and IC50 determination (final DMSO conc in the assay was 1%). All the measurements were carried out using the Spectramax M5, Molecular devices. The compounds were screened at 1 and 10 μM concentration and IC50 was determined for the interested compounds.
To determine IC50 values, dose response curves were generated by plotting percentage inhibition as a function of inhibitor concentration and the data was fitted to sigmoidal non-linear regression equation (variable slope) using Graph Pad prism software V7.

Setting [1] is: 1 uM compound, Assay Used = B (Method B).

For the compound `N=C(N)c1ccc2cc(C(=O)NC3CCNC(=O)C3)n(Cc3cc(Oc4ncccn4)cc4ccccc34)c2c1` (racemic) [Compound I-560], for the setting “1 uM compound, Assay Used = B”, the inhibition at 1 µM fell in the range of 50 to 75%.

With `N=C(N)c1ccc2cc(C(=O)N[C@H]3CC[C@H](N)CC3)n(C[C@H]3CCCc4ccccc43)c2c1` (racemic) [Compound I-612], the inhibition at 1 µM under setting [1] was in the range of 25 to 50%.

`N=C(N)c1ccc2cc(C(=O)O)n(C[C@H]3CCCc4ccccc43)c2c1` (racemic) [Compound I-613]: the inhibition at 1 µM under setting [1] fell in the range of 25 to 50%.

With `N=C(N)c1ccc2cc(C(=O)N[C@H]3CC[C@H](N)CC3)n(C[C@H]3CCc4ccccc43)c2c1` (racemic) [Compound I-616], the inhibition at 1 µM under setting [1] lay within 25 to 50%.

For `CC(C)(C)OC(=O)NC(=N)c1ccc2cc(C(=O)N3CC[C@H](O)C3)n(Cc3cccc4ccccc34)c2c1` (stereo in doubt) [Compound I-424], where the note is “1 uM compound, Assay Used = B”, the inhibition at 1 µM fell in the range of 0 to 25%.

Regarding `CC(C)(C)OC(=O)NC(=N)c1ccc2cc(C(=O)N3CC[C@H](NC(=O)OC(C)(C)C)C3)n(Cc3cccc4ccccc34)c2c1` (stereo in doubt) [Compound I-428], the inhibition at 1 µM (1 uM compound, Assay Used = B) was in the range of 0 to 25%.

`N=C(N)c1ccc2cc(C(=O)NC34CC5C[C@H](C3)C[C@](O)(C5)C4)n(Cc3cccc4ccccc34)c2c1` (stereo in doubt) [Compound I-449]: for the setting “1 uM compound, Assay Used = B”, the inhibition at 1 µM lay in the range of 25 to 50%.

Regarding `N=C(N)c1ccc2cc(C(=O)N[C@H]3CC[C@H](N)CC3)n(S(=O)(=O)c3ccc4ccccc4c3)c2c1` [Compound I-37], the inhibition at 1 µM (1 uM, Assay Used B) fell in the range of 0 to 25%.

Consider `N=C(N)c1ccc2cc(C(=O)N[C@H]3CC[C@H](N)CC3)n(Cc3ccc4ccccc4c3)c2c1` [Compound I-233], for which the inhibition at 1 µM (at 1 uM, Assay Used = B) was 25 to 50%.

`N=C(N)c1ccc(CNC(=O)c2cc3ccc(C(=N)N)cc3n2Cc2cccc3ccccc23)cc1` [Compound I-395]: the inhibition at 1 µM (at 1 uM, Assay Used = B) was in the range of 75 to 100%.

For the compound `N=C(N)c1ccc2cc(C(=O)N[C@H]3CC[C@H](N)CC3)n(S(=O)(=O)c3cccc4ccccc34)c2c1` [Compound I-396, N-((1r,4r)-4-aminocyclohexyl)-6-carbamimidoyl-1-(naphthalen-1-ylsulfonyl)-1H-indole-2-carboxamide], under “at 1 uM, Assay Used = B”, the inhibition at 1 µM lay within 25 to 50%.

For the compound `CC(C)(C)OC(=O)N[C@H]1CC[C@H](NC(=O)c2cc3ccc(C(=N)N)cc3n2Cc2ccc3ccccc3c2)CC1` [Compound I-402, tert-butyl ((1r,4r)-4-(6-carbamimidoyl-1-(naphthalen-2-ylmethyl)-1H-indole-2-carboxamido)cyclohexyl) carbamate], the “Mar-2 % inhibition at 1 uM” value (1 uM compound, Assay Used = B) was “A (A represents 0%≤I≤25%)”.

As to `CC(C)(C)OC(=O)N[C@H]1CC[C@H](NC(=O)c2cc3ccc(C(=N)N)cc3n2Cc2cccc3ccccc23)CC1` [Compound I-403], the “Mar-2 % inhibition at 1 uM” value (1 uM compound, Assay Used = B) was “A (A represents 0%≤I≤25%)”.

In the case of `CC(C)(C)OC(=O)N[C@H]1CC[C@H](NC(=O)c2cc3ccc(C(=N)N)cc3n2CCc2cccc3ccccc23)CC1` [Compound I-404], the inhibition at 1 µM (1 uM compound, Assay Used = B) was in the range of 0 to 25%.

In the case of `CC(C)(C)OC(=O)N[C@H]1CC[C@H](NC(=O)c2cc3ccc(C(=N)N)cc3n2CCc2ccc3ccccc3c2)CC1` [Compound I-405], the inhibition at 1 µM (1 uM compound, Assay Used = B) lay in the range of 25 to 50%.

On to `N=C(N)c1ccc2cc(C(=O)N[C@H]3CC[C@H](N)CC3)n(Cc3cccc4ccccc34)c2c1` [Compound I-407], for which the inhibition at 1 µM (1 uM compound, Assay Used = B) is 75 to 100%.

With `N=C(N)c1ccc2cc(C(=O)N[C@H]3CC[C@H](N)CC3)n(CCc3cccc4ccccc34)c2c1` [Compound I-409], the inhibition at 1 µM (1 uM compound, Assay Used = B) lay within 25 to 50%.

On to `N=C(N)c1ccc2cc(C(=O)N[C@H]3CC[C@H](N)CC3)n(CCc3ccc4ccccc4c3)c2c1` [Compound I-410], for which the inhibition at 1 µM (1 uM compound, Assay Used = B) was in the range of 25 to 50%.

Regarding `CCNC(=N)c1ccc2cc(C(=O)N[C@H]3CC[C@H](NC(=O)OC(C)(C)C)CC3)n(Cc3ccc4ccccc4c3)c2c1` [Compound I-411, Tert-butyl ((1r,4r)-4-(6-(N-ethylcarbamimidoyl)-1-(naphthalen-2-ylmethyl)-1H-indole-2-carboxamido)cyclohexyl)carbamate], the inhibition at 1 µM (1 uM compound, Assay Used = B) fell in the range of 0 to 25%.

Turning to `CNC(=N)c1ccc2cc(C(=O)NC3CCC(NC(=O)OC(C)(C)C)CC3)n(Cc3ccc4ccccc4c3)c2c1` (centres unmarked) [Compound I-412], for the setting “1 uM compound, Assay Used = B”, the inhibition at 1 µM lay within 25 to 50%.

As for `CCNC(=N)c1ccc2cc(C(=O)N[C@H]3CC[C@H](N)CC3)n(Cc3ccc4ccccc4c3)c2c1` [Compound I-413, N-((1r,4r)-4-aminocyclohexyl)-6-(N-ethylcarbamimidoyl)-1-(naphthalen-2-ylmethyl)-1H-indole-2-carboxamide], the inhibition at 1 µM (1 uM compound, Assay Used = B) lay within 25 to 50%.

On to `CNC(=N)c1ccc2cc(C(=O)N[C@H]3CC[C@H](N)CC3)n(Cc3ccc4ccccc4c3)c2c1` [Compound I-414], for which the inhibition at 1 µM (1 uM compound, Assay Used = B) lay within 0 to 25%.

Consider `N=C(N)c1ccc2cc(C(=O)N[C@H]3CC[C@H](N)CC3)n(-c3cccc4ccccc34)c2c1` [Compound I-415, N-((1r,4r)-4-aminocyclohexyl)-6-carbamimidoyl-1-(naphthalen-1-yl)-1H-indole-2-carboxamide], for which the inhibition at 1 µM (1 uM compound, Assay Used = B) lay within 25 to 50%.

Turning to `CC(C)(C)OC(=O)N[C@H]1CC[C@H](NC(=O)c2cc3ccc(C(=N)N)cc3n2-c2ccc3ccccc3c2)CC1` [Compound I-416], the inhibition at 1 µM (1 uM compound, Assay Used = B) lay within 0 to 25%.

On to `NC(=O)c1ccc2cc(C(=O)N[C@H]3CC[C@H](N)CC3)n(-c3cccc4ccccc34)c2c1` [Compound I-417, N2-((1r,4r)-4-aminocyclohexyl)-1-(naphthalen-1-yl)-1H-indole-2,6-dicarboxamide], for which the inhibition at 1 µM (1 uM compound, Assay Used = B) fell in the range of 0 to 25%.

For `N=C(N)c1ccc2cc(C(=O)NC3CCNCC3)n(Cc3cccc4ccccc34)c2c1` [Compound I-418, 6-carbamimidoyl-1-(naphthalen-1-ylmethyl)-N-(piperidin-4-yl)-1H-indole-2-carboxamide], the inhibition at 1 µM (1 uM compound, Assay Used = B) lay in the range of 75 to 100%.

Take `CC(C)(C)OC(=O)NC(=N)c1ccc2cc(C(=O)Nc3ccc(NC(=O)c4ccccn4)cc3)n(Cc3cccc4ccccc34)c2c1` [Compound I-419]: the inhibition at 1 µM (1 uM compound, Assay Used = B) is 0 to 25%.

For `CCOC(=O)N1CCC(NC(=O)c2cc3ccc(C(=N)NC(=O)OC(C)(C)C)cc3n2Cc2cccc3ccccc23)CC1` [Compound I-420], the inhibition at 1 µM (1 uM compound, Assay Used = B) was in the range of 0 to 25%.

Regarding `CC(C)(C)OC(=O)NC(=N)c1ccc2cc(C(=O)NCc3ccc(CO)cc3)n(Cc3cccc4ccccc34)c2c1` [Compound I-421], under “1 uM compound, Assay Used = B”, the inhibition at 1 µM was in the range of 0 to 25%.

With `CC(C)(C)OC(=O)NC(=N)c1ccc2cc(C(=O)N[C@H]3CC[C@H](O)CC3)n(Cc3cccc4ccccc34)c2c1` [Compound I-422], the inhibition at 1 µM (1 uM compound, Assay Used = B) lay within 25 to 50%.

Regarding `CC(C)(C)OC(=O)NC(=N)c1ccc2cc(C(=O)N3CCCN(C(=O)OC(C)(C)C)CC3)n(Cc3cccc4ccccc34)c2c1` [Compound I-423], the inhibition at 1 µM (1 uM compound, Assay Used = B) was 0 to 25%.

Take `CN1CCN(C(=O)c2cc3ccc(C(=N)NC(=O)OC(C)(C)C)cc3n2Cc2cccc3ccccc23)CC1` [Compound I-425]: the inhibition at 1 µM (1 uM compound, Assay Used = B) fell in the range of 0 to 25%.

Turning to `CC(C)(C)OC(=O)NC(=N)c1ccc2cc(C(=O)N3CCC(CO)CC3)n(Cc3cccc4ccccc34)c2c1` [Compound I-426], for the setting “1 uM compound, Assay Used = B”, the inhibition at 1 µM lay within 0 to 25%.

For the compound `CC(C)(C)OC(=O)NC(=N)c1ccc2cc(C(=O)NC3CCCN(C(=O)OC(C)(C)C)C3)n(Cc3cccc4ccccc34)c2c1` (centres unmarked) [Compound I-427], the inhibition at 1 µM (1 uM compound, Assay Used = B) is 0 to 25%.

With `N=C(N)c1ccc2cc(C(=O)N3CCC(CN)CC3)n(Cc3cccc4ccccc34)c2c1` [Compound I-429], the inhibition at 1 µM (1 uM compound, Assay Used = B) lay within 50 to 75%.

With `N=C(N)c1ccc2cc(C(=O)Nc3ccc(NC(=O)c4ccccn4)cc3)n(Cc3cccc4ccccc34)c2c1` [Compound I-430], for the setting “1 uM compound, Assay Used = B”, the inhibition at 1 µM lay within 50 to 75%.

For the compound `N=C(N)c1ccc2cc(C(=O)N3CCN(C(=O)CN)CC3)n(Cc3cccc4ccccc34)c2c1` [Compound I-431], the inhibition at 1 µM (1 uM compound, Assay Used = B) was in the range of 50 to 75%.

Take `CN1CCC(NC(=O)c2cc3ccc(C(=N)N)cc3n2Cc2cccc3ccccc23)CC1` [Compound I-432]: the inhibition at 1 µM (1 uM compound, Assay Used = B) fell in the range of 75 to 100%.
